Test results as given in patent US20240294466A1, “SODIUM N-(8-(2- HYDROXYBENZOYL)AMINO)CAPRYLATE P[…] A” (Novo Nordisk A/S, priority 2021, published 2024).

How the values were obtained:
Type in all cases: physicochemical
[1] = XRPD FWHM of the peak at 8.7±0.2° 2θ (degree of crystal imperfections), method 1; details: Batch 5, tray oven
Description: (§1) XRPD was performed using a Malvern Panalytical Empyrean diffractometer at ambient conditions. The diffraction pattern was measured at room temperature using an Empyrean Cu LFF HR (45 kV/40 mA) source and PIXcel3D-Medipix3 1×1 detector. The measurement was performed in the range of 2-40° 20 using a scan speed of 0.067335° 2θ/s and a step size of 0.0262606° 2θ. The samples were measured in transmission mode and with a spinner revolution time of 1 second. Approximately 200 mg of sample were placed between two sheets of Kapton Polyimide Thin-film. The measurements were performed using a Soller slit of 0.04 radians and a fixed divergence slit of 0.5° on the incident beam, and a 3 mm Anti scatter slit and a Soller slit of 0.04 radians in the diffracted beam.
The degree of crystal imperfections was assessed by use of the FWHM as more crystal imperfections might cause peak broadening and lower peak height, which leads to higher FWHM values due to fewer lattice planes with identical orientation contributing to the diffraction peak. Oppositely, in the absence of crystal imperfections, lattice planes with identical orientation increase and result in narrower and higher diffraction peaks leading to smaller FWHM values. The FWHM was calculated using the characteristic peak at 8.7±0.2° 2θ by finding the apex of the peak and measuring the height of the peak applying the x-axis as the baseline (automatic mode) (see FIG. 11) or applying a baseline spanning the two surrounding troughs (manual mode) (see FIG. 12). This value is then divided in half to find the half height. Hereafter the width of the peak at that half height is measured and reported in ° 2θ. Alternatively, the peak at 6.0±0.2° 2θ may also be used to calculate the FWHM.
(§2) Samples from a batch of SNAC polymorphic form A (Batch 5) with a FWHM of 0.97° 2θ (automatic mode) and a moisture uptake of 1.98% at 65% RH from the beginning were heated to 90, 100, 110, 120, 130, and 140° C., respectively, in a tray oven. The samples were exposed to their respective temperatures for up to 72 h. The sample size was small enough to ensure that the samples equilibrated completely, within a few of minutes, to the oven temperature. Samples were taken during the 72 h of elevated temperature exposure and subjected to XRPD measurements in accordance with method 1 to determine the polymorphic form and impact on crystal imperfections using FWHM with the x-axis as the baseline (automatic mode).
(§3) Samples from different batches of SNAC polymorphic form A were subjected to a heat treatment in a tray oven and the sample size was small enough to ensure that the samples equilibrated completely and within a couple of minutes to the oven temperature. Samples were taken from the batches before the heat treatment and after the heat treatment and subjected to XRPD measurements in accordance with method 1 to determine the polymorphic form and impact on crystal imperfections using FWHM with the x-axis as the baseline (auto mode). Furthermore, samples were also subjected to DVS measurements in accordance with method 3 to determine the impact of the heat treatment on the hygroscopicity.

[2] = Dynamic vapour sorption (DVS) moisture uptake, method 3; details: for mass increase when subjected to an increase in relative humidity from about 0% to about 65% RH as determined by DVS: 25° C.; for Moisture absorbed for SNAC at 65% RH determined by DVS: DVS at 25 °C
Description: Moisture sorption/desorption data were measured by a Dynamic Vapour Sorption Advantage 1 from Surface Measurement Systems. Prior to analysis the samples were dried for up to about 48 h in desiccators containing phosphorus pentoxide. Approximately 20 mg of sample was placed into a balance pan and loaded into the instrument and the sample was then further dried for a minimum of 500 min in the instrument at 0% RH using a nitrogen purge. The resulting sample weight after the further drying was assigned as the 0% start weight and all weight gains and losses was calculated relative to this start weight. Sorption and desorption isotherms were collected over a range from 0 to 90% relative humidity (RH) using a nitrogen purge at 25° C. The threshold for equilibrium used for analysis was 0.002 to 0.0005 dm/dt.
Furthermore, samples were taken after 24 h of exposure at the indicated elevated temperatures and were subjected to dynamic vapor sorption measurements in accordance with method 3 to determine the hygroscopicity. The moisture uptake was measured at 65% RH. The hygroscopicity is decreased as the moisture absorbed at 65% RH decreases when exposing SNAC polymorphic form A to elevated temperatures for 24 h.

[3] = Polymorphic form determined by XRPD, method 1; details: for Polymorphic form of SNAC determined by XRPD: Batch 5, tray oven
Description: as §1
The polymorphic form of the sample was determined by comparison of the diffractogram obtained for the sample with reference diffractograms for the SNAC polymorphs and solvates.
as §2, §3

O=C([O-])CCCCCCCNC(=O)c1ccccc1O.[Na+] [SNAC, monosodium N-[8-(2-hydroxybenzoyl)-amino]caprylate]
FWHM (automatic mode) for the XRPD peak around 8.7 ± 0.2° 2θ ([1]; 90 °C, 0 h): 0.97 ° 2θ
FWHM (automatic mode) for the XRPD peak around 8.7 ± 0.2° 2θ ([1]; 90 °C, 0.25 h): 0.95 ° 2θ
FWHM (automatic mode) for the XRPD peak around 8.7 ± 0.2° 2θ ([1]; 90 °C, 0.5 h): 0.95 ° 2θ
FWHM (automatic mode) for the XRPD peak around 8.7 ± 0.2° 2θ ([1]; 90 °C, 1 h): 0.92 ° 2θ
FWHM (automatic mode) for the XRPD peak around 8.7 ± 0.2° 2θ ([1]; 90 °C, 6 h): 0.92 ° 2θ
FWHM (automatic mode) for the XRPD peak around 8.7 ± 0.2° 2θ ([1]; 90 °C, 24 h): 0.89 ° 2θ
FWHM (automatic mode) for the XRPD peak around 8.7 ± 0.2° 2θ ([1]; 90 °C, 48 h): 0.89 ° 2θ
FWHM (automatic mode) for the XRPD peak around 8.7 ± 0.2° 2θ ([1]; 90 °C, 72 h): 0.89 ° 2θ
FWHM (automatic mode) for the XRPD peak around 8.7 ± 0.2° 2θ ([1]; 100 °C, 0 h): 0.97 ° 2θ
FWHM (automatic mode) for the XRPD peak around 8.7 ± 0.2° 2θ ([1]; 100 °C, 0.25 h): 1.02 ° 2θ
FWHM (automatic mode) for the XRPD peak around 8.7 ± 0.2° 2θ ([1]; 100 °C, 0.5 h): 0.95 ° 2θ
FWHM (automatic mode) for the XRPD peak around 8.7 ± 0.2° 2θ ([1]; 100 °C, 1 h): 0.95 ° 2θ
FWHM (automatic mode) for the XRPD peak around 8.7 ± 0.2° 2θ ([1]; 100 °C, 6 h): 0.89 ° 2θ
FWHM (automatic mode) for the XRPD peak around 8.7 ± 0.2° 2θ ([1]; 100 °C, 24 h): 0.81 ° 2θ
FWHM (automatic mode) for the XRPD peak around 8.7 ± 0.2° 2θ ([1]; 100 °C, 48 h): 0.81 ° 2θ
FWHM (automatic mode) for the XRPD peak around 8.7 ± 0.2° 2θ ([1]; 100 °C, 72 h): 0.81 ° 2θ
FWHM (automatic mode) for the XRPD peak around 8.7 ± 0.2° 2θ ([1]; 110 °C, 0 h): 0.97 ° 2θ
FWHM (automatic mode) for the XRPD peak around 8.7 ± 0.2° 2θ ([1]; 110 °C, 0.25 h): 0.92 ° 2θ
FWHM (automatic mode) for the XRPD peak around 8.7 ± 0.2° 2θ ([1]; 110 °C, 0.5 h): 0.84 ° 2θ
FWHM (automatic mode) for the XRPD peak around 8.7 ± 0.2° 2θ ([1]; 110 °C, 1 h): 0.87 ° 2θ
FWHM (automatic mode) for the XRPD peak around 8.7 ± 0.2° 2θ ([1]; 110 °C, 6 h): 0.71 ° 2θ
FWHM (automatic mode) for the XRPD peak around 8.7 ± 0.2° 2θ ([1]; 110 °C, 24 h): 0.66 ° 2θ
FWHM (automatic mode) for the XRPD peak around 8.7 ± 0.2° 2θ ([1]; 110 °C, 48 h): 0.60 ° 2θ
FWHM (automatic mode) for the XRPD peak around 8.7 ± 0.2° 2θ ([1]; 110 °C, 72 h): 0.58 ° 2θ
FWHM (automatic mode) for the XRPD peak around 8.7 ± 0.2° 2θ ([1]; 120 °C, 0 h): 0.97 ° 2θ
FWHM (automatic mode) for the XRPD peak around 8.7 ± 0.2° 2θ ([1]; 120 °C, 0.25 h): 0.81 ° 2θ
FWHM (automatic mode) for the XRPD peak around 8.7 ± 0.2° 2θ ([1]; 120 °C, 0.5 h): 0.76 ° 2θ
FWHM (automatic mode) for the XRPD peak around 8.7 ± 0.2° 2θ ([1]; 120 °C, 1 h): 0.71 ° 2θ
FWHM (automatic mode) for the XRPD peak around 8.7 ± 0.2° 2θ ([1]; 120 °C, 6 h): 0.63 ° 2θ
FWHM (automatic mode) for the XRPD peak around 8.7 ± 0.2° 2θ ([1]; 120 °C, 24 h): 0.58 ° 2θ
FWHM (automatic mode) for the XRPD peak around 8.7 ± 0.2° 2θ ([1]; 120 °C, 48 h): 0.58 ° 2θ
FWHM (automatic mode) for the XRPD peak around 8.7 ± 0.2° 2θ ([1]; 120 °C, 72 h): 0.53 ° 2θ
FWHM (automatic mode) for the XRPD peak around 8.7 ± 0.2° 2θ ([1]; 130 °C, 0 h): 0.97 ° 2θ
FWHM (automatic mode) for the XRPD peak around 8.7 ± 0.2° 2θ ([1]; 130 °C, 0.25 h): 0.81 ° 2θ
FWHM (automatic mode) for the XRPD peak around 8.7 ± 0.2° 2θ ([1]; 130 °C, 0.5 h): 0.74 ° 2θ
FWHM (automatic mode) for the XRPD peak around 8.7 ± 0.2° 2θ ([1]; 130 °C, 1 h): 0.66 ° 2θ
FWHM (automatic mode) for the XRPD peak around 8.7 ± 0.2° 2θ ([1]; 130 °C, 6 h): 0.50 ° 2θ
FWHM (automatic mode) for the XRPD peak around 8.7 ± 0.2° 2θ ([1]; 130 °C, 24 h): 0.50 ° 2θ
FWHM (automatic mode) for the XRPD peak around 8.7 ± 0.2° 2θ ([1]; 130 °C, 48 h): 0.50 ° 2θ
FWHM (automatic mode) for the XRPD peak around 8.7 ± 0.2° 2θ ([1]; 130 °C, 72 h): 0.50 ° 2θ
FWHM (automatic mode) for the XRPD peak around 8.7 ± 0.2° 2θ ([1]; 140 °C, 0 h): 0.97 ° 2θ
FWHM (automatic mode) for the XRPD peak around 8.7 ± 0.2° 2θ ([1]; 140 °C, 0.25 h): 0.68 ° 2θ
FWHM (automatic mode) for the XRPD peak around 8.7 ± 0.2° 2θ ([1]; 140 °C, 0.5 h): 0.58 ° 2θ
FWHM (automatic mode) for the XRPD peak around 8.7 ± 0.2° 2θ ([1]; 140 °C, 1 h): 0.53 ° 2θ
FWHM (automatic mode) for the XRPD peak around 8.7 ± 0.2° 2θ ([1]; 140 °C, 6 h): 0.45 ° 2θ
FWHM (automatic mode) for the XRPD peak around 8.7 ± 0.2° 2θ ([1]; 140 °C, 24 h): 0.45 ° 2θ
FWHM (automatic mode) for the XRPD peak around 8.7 ± 0.2° 2θ ([1]; 140 °C, 48 h): 0.42 ° 2θ
FWHM (automatic mode) for the XRPD peak around 8.7 ± 0.2° 2θ ([1]; 140 °C, 72 h): 0.45 ° 2θ
mass increase when subjected to an increase in relative humidity from about 0% to about 65% RH as determined by DVS ([2]; sample of FIG. 1): less than 1.0%
mass increase when subjected to an increase in relative humidity from about 0% to about 65% RH as determined by DVS ([2]; sample of FIG. 2): about 1.3%
mass increase when subjected to an increase in relative humidity from about 0% to about 65% RH as determined by DVS ([2]; sample of FIG. 3): about 2.9%
Moisture absorbed for SNAC at 65% RH determined by DVS ([2]; Batch 5, after 24 h at 90 °C): 1.73%
Moisture absorbed for SNAC at 65% RH determined by DVS ([2]; Batch 5, after 24 h at 100 °C): 1.37%
Moisture absorbed for SNAC at 65% RH determined by DVS ([2]; Batch 5, after 24 h at 110 °C): 1.21%
Moisture absorbed for SNAC at 65% RH determined by DVS ([2]; Batch 5, after 24 h at 120 °C): 0.94%
Moisture absorbed for SNAC at 65% RH determined by DVS ([2]; Batch 5, after 24 h at 130 °C): 0.81%
Moisture absorbed for SNAC at 65% RH determined by DVS ([2]; Batch 5, after 24 h at 140 °C): 0.74%
Polymorphic form of SNAC determined by XRPD ([3]; 120 °C, 48 h): A & B
Polymorphic form of SNAC determined by XRPD ([3]; 120 °C, 72 h): A & B
Polymorphic form of SNAC determined by XRPD ([3]; 130 °C, 6 h): A & B
Polymorphic form of SNAC determined by XRPD ([3]; 130 °C, 24 h): A & B
Polymorphic form of SNAC determined by XRPD ([3]; 130 °C, 48 h): A & B
Polymorphic form of SNAC determined by XRPD ([3]; 130 °C, 72 h): A & B
Polymorphic form of SNAC determined by XRPD ([3]; 140 °C, 1 h): A & B
Polymorphic form of SNAC determined by XRPD ([3]; 140 °C, 6 h): A & B
Polymorphic form of SNAC determined by XRPD ([3]; 140 °C, 24 h): A & B
Polymorphic form of SNAC determined by XRPD ([3]; 140 °C, 48 h): A & B
Polymorphic form of SNAC determined by XRPD ([3]; 140 °C, 72 h): A & B
onset time of conversion into polymorphic form B ([3]; at 120° C.): more than 24 h
onset time of conversion into polymorphic form B ([3]; at 130° C.): > 1 h
onset time of conversion into polymorphic form B ([3]; at 140° C.): > 0.5 h
conversion of the polymorphic form ([3]; exposure for up to 72 h at temperatures up to about 110° C.): does not convert
